Tested on: asymmetric di-methyl PABP1 in RKO cells
Test: RKO methylation assay, In Cell Western (ICW) for asymmetric di-methyl PABP1
Assay type: cell-based
Conditions: Homo sapiens, RKO, Cellular potencies, ICW PABP1me2a
Source text: RKO adherent cells were purchased from ATCC (American Type Culture Collection), Manassas, Va., USA. DMEM/Glutamax medium, penicillin-streptomycin, heat inactivated fetal bovine serum, 0.05% trypsin and D-PBS were purchased from Life Technologies, Grand Island, N.Y., USA. Odyssey blocking buffer, 800 CW goat anti-rabbit IgG (H+L) antibody, and Licor Odyssey infrared scanner were purchased from Licor Biosciences, Lincoln, Nebr., USA. Asymmetric di-methyl PABP1 antibody was purchased from Cell Signaling Technology, Danvers, Mass., USA. Methanol was purchased from VWR, Franklin, Mass., USA. 10% Tween 20 was purchased from KPL, Inc., Gaithersburg, Md., USA. Paraformaldehyde (PFA) was purchased from EM Sciences. DRAQ5 was purchased from Biostatus Limited, Leicestershire, UK.
RKO adherent cells were maintained in growth medium (DMEM/Glutamax medium supplemented with 10% v/v heat inactivated fetal bovine serum and 100 units/mL penicillin-streptomycin) and cultured at 37° C. under 5% CO2.
Cell treatment, In Cell Western (ICW) for detection of asymmetric di-methyl PABP1 and DNA content: RKO cells were seeded in assay medium at a concentration of 30,000 cells per mL to a poly-D-lysine coated 384 well culture plate (BD Biosciences 356697) with 50 VL per well. Compound (100 nL) from a 96-well source plate was added directly to 384 well cell plate. Plates were incubated at 37° C., 5% CO2 for 48 hours. After two days of incubation, plates were brought to room temperature outside of the incubator for ten minutes and blotted on paper towels to remove cell media. Cells were fixed for 20 minutes at room temperature by adding 50 ul of 8% PFA followed by aspiration of supernatant with the Biotek EL406 plate washer. Cells were then permeabilized by addition of 50 μL of ice cold 100% methanol directly to each well and incubated for 30 min at room temperature. After 30 min, plates were transferred to a Biotek EL406 plate washer and washed 2 times with 100 μL per well of wash buffer (1×PBS). Next 60 μL per well of Odyssey blocking buffer (Odyssey Buffer with 0.1% Tween 20 (v/v)) were added to each plate and incubated 1 hour at room temperature. Blocking buffer was removed and 20 μL per well of primary antibody was added (asymmetric-methyl PABP1) diluted 1:400 in Odyssey buffer with 0.1% Tween 20 (v/v)) and plates were incubated overnight (16 hours) at 4° C. Plates were washed 5 times with 100 μL per well of wash buffer. Next 20 μL per well of secondary antibody was added (1:800 800 CW goat anti-rabbit IgG (H+L) antibody, 1:2000 DRAQ5 in Odyssey buffer with 0.1% Tween 20 (v/v)) and incubated for 1 hour at room temperature. The plates were washed 5 times with 100 μL per well wash buffer then 2 times with 100 μL per well of water. Plates were allowed to dry at room temperature then imaged on the Licor Odyssey machine which measures integrated intensity at 700 nm and 800 nm wavelengths. Both 700 and 800 channels were scanned.
First, the ratio for each well was determined by:
Each plate included fourteen control wells of DMSO only treatment (minimum inhibition) as well as fourteen control wells for maximum inhibition treated with 20 μM of a reference compound. The average of the ratio values for each control type was calculated and used to determine the percent […] for each test well in the plate. Reference compound was serially diluted three-fold in DMSO for a total of nine test concentrations, beginning at 20 μM.
Percent inhibition was determined and IC50 curves were generated using triplicate wells per concentration of compound. […]

| SMILES | IC50 [µM] |
| --- | --- |
| CNCC(O)COc1cc(Cl)cc(-c2nc(-c3cnc4ccccc4n3)c(C)c(N(C)C3CCOCC3)n2)c1 (stereo not shown) [Example 612-1a] | 10 to 20 |
| CNCC(O)COc1cccc(-c2nc(-c3c(C)noc3C)c(C)c(N3CC(CO)(CNC(=O)N(C)C)C3)n2)c1 (stereo not shown) [Example 298-1a] | 10 to 20 |
| CNCC(O)COc1cccc(-c2nc(N[C@@H]3CCOC3)c(C)c(N3CCC4(CN(CC(F)F)C4)C3)n2)c1 (stereo partly shown) [Example 475-1a] | 5 to 10 |
| CNCC(O)COc1cccc(-c2nc(-c3ccnc(C)c3)cc(N(C)C3CCOCC3)n2)c1 (stereo not shown) [Example 40-1] | 5 to 10 |
| CNCC(O)COc1cccc(-c2nc(-c3cnc(C)n3C)cc(N(C)C3CCOCC3)n2)c1 (stereo not shown) [Example 517-1a] | 5 to 10 |
| CNCC(O)COc1cccc(-c2nc(N[C@@H]3COC(=O)C3)c(C)c(-c3c(C)noc3C)n2)c1 (stereo partly shown) [Example 268-1a] | 10 to 20 |
| CNCC(O)COc1cccc(-c2nc(NC3CCOC3)c(C)c(N3CCN[C@@H](C)C3)n2)c1 (stereo partly shown) [Example 351-1a] | 5 to 10 |
| CNCC(O)COc1cccc(-c2nc(NC3CCOC3)c(C)c(-c3cn(C)nn3)n2)c1 (stereo not shown) [Example 335-1a] | 5 to 10 |
| CCS(=O)(=O)N1CC(Nc2nc(-c3cccc(OCC(O)CNC)c3)nc(-c3c(C)noc3C)c2C)C1 (stereo not shown) [Example 273-1a] | 10 to 20 |
| CNC[C@@H](O)COc1ccc(Cl)c(-c2nc(-c3c(C)noc3C)c(C)c(N3CCc4nn(C)cc4C3)n2)c1 [Example 122-3] | < 5 |
| CNCC(O)COc1cccc(-c2nc(-c3c(C)noc3C)c(C)c(N3CC4(CN(C(=O)OC)C4)C3)n2)c1 (stereo not shown) [Example 299-1a] | < 5 |
| CNC[C@@H](O)COc1cccc(-c2nc(N[C@@H]3CCN(C4CC4)C[C@@H]3F)c(Cl)c(-c3c(C)noc3C)n2)c1 [Example 68-3] | < 5 |
| CNCC(O)COc1cccc(-c2nc(-c3c(C)noc3C)c(C)c(N3C[C@@H](C)O[C@@H](C)C3)n2)c1 (stereo partly shown) [Example 164-1a] | < 5 |
| CNCC(O)COc1cccc(-c2nc(NC3CCOC3)c(C)c(N3CC4(CCNCC4)c4ccccc43)n2)c1 (stereo not shown) [Example 398-1a] | 10 to 20 |
| CNC[C@@H](O)COc1ccc(F)c(-c2nc(-c3c(C)noc3C)c(C)c(N3Cc4cncnc4C3)n2)c1 [Example 260-3] | < 5 |
| CNCC(O)COc1cccc(-c2nc(-c3c[nH]c4ncncc34)cc(N(C)C3CCOCC3)n2)c1 (stereo not shown) [Example 504-1a] | < 5 |

| SMILES | IC50 [µM] |
| --- | --- |
| CNC[C@@H](O)COc1ccc(Cl)c(-c2nc(-c3c(C)noc3C)c(C)c(N3Cc4cnn(C5CC5)c4C3)n2)c1 [Example 270-3] | < 5 |
| CNC[C@@H](O)COc1cccc(-c2nc(NC3CCOCC3)cc(-c3c(C)noc3C)n2)c1 [Example 18-1a] | < 5 |
| CNC[C@H](O)COc1cccc(-c2nc(NC3CCOCC3)c(C)c(-c3c(C)noc3C)n2)c1 [Example 55-1a] | < 5 |
| CNC[C@@H](O)COc1ccc(Cl)c(-c2nc(N[C@H]3CO[C@H](C)C3)c(C)c(-c3c(C)noc3C)n2)c1 [Example 198-3] | < 5 |
| Cc1noc(C)c1-c1cc(NC2CCOCC2)nc(-c2cccc(OC[C@H](O)CN)c2)n1 [Example 16-1a] | 5 to 10 |
| CNCC(O)COc1cccc(-c2nc(-c3c(C)noc3C)c(C)c(N3CCO[C@H](CN(C)S(C)(=O)=O)C3)n2)c1 (stereo partly shown) [Example 126-1a] | 5 to 10 |
| CNCC(O)COc1cccc(-c2nc(N[C@@H]3C[C@H]4CC[C@@H](C3)N4C(=O)OC)c(C)c(-c3c(C)noc3C)n2)c1 (stereo partly shown) [Example 265-1a] | < 5 |
| CNCC(O)COc1cccc(-c2nc(N[C@H]3C[C@@](C)(O)C3)c(C)c(-c3c(C)noc3C)n2)c1 (stereo partly shown) [Example 255-1a] | < 5 |
| CNC[C@@H](O)COc1ccc(Cl)c(-c2nc(-c3cnn(C)c3)c(C)c(-c3c(C)noc3C)n2)c1 [Example 239-3] | < 5 |
| CNCC(O)COc1cccc(-c2nc(-c3c(C)noc3C)cc(N3CCC4(CC3)NC(=O)NC4=O)n2)c1 (stereo not shown) [Example 42-1a] | 10 to 20 |
| CNCC(O)COc1cccc(-c2nc(-c3cnc4cnccn34)cc(N(C)C3CCOCC3)n2)c1 (stereo not shown) [Example 490-1a] | < 5 |
| CCOC(=O)N1CC[C@H](Nc2nc(-c3cc(OC[C@H](O)CNC)ccc3Cl)nc(-c3c(C)noc3C)c2C)C1 [Example 150-3] | < 5 |
| CCS(=O)(=O)N1CCCC(Nc2nc(-c3cccc(OCC(O)CNC)c3)nc(-c3c(C)noc3C)c2C)C1 (stereo not shown) [Example 204-1a] | < 5 |
| CNCC(O)COc1cccc(-c2nc(N[C@@H]3CCC[C@@H]3O)c(C)c(-c3c(C)noc3C)n2)c1 (stereo partly shown) [Example 250-1a] | < 5 |
| CNCC(O)COc1cccc(-c2nc(C3=CCCC3)cc(N(C)C3CCOCC3)n2)c1 (stereo not shown) [Example 621-1a] | 10 to 20 |

The remaining lines, values ahead:

| IC50 [µM] | SMILES |
| --- | --- |
| < 5 | CNCC(O)COc1cccc(-c2nc(Nc3cn(C)cn3)c(C)c(-c3c(C)noc3C)n2)c1 (stereo not shown) [Example 210-1a] |
| < 5 | CNC[C@H](O)COc1ccc(F)c(-c2nc(NC3CCOCC3)c(C)c(-c3c(C)noc3C)n2)c1 [Example 72-3] |
| < 5 | CNC[C@@H](O)COc1ccc(Cl)c(-c2nc(-c3c(C)noc3C)c(C)c(N3CCC4(CCN(C5CC5)C4)C3)n2)c1 (stereo partly shown) [Example 138-3] |
| < 5 | CNCC(O)COc1cccc(-c2nc(NCCCN3CCCCCC3=O)cc(-c3c(C)noc3C)n2)c1 (stereo not shown) [Example 99-1a] |
| < 5 | CCOC(=O)N1CC2(CCCN(c3nc(-c4cccc(OCC(O)CNC)c4)nc(-c4c(C)noc4C)c3C)C2)C1 (stereo not shown) [Example 295-1a] |
| < 5 | CCOC(=O)N1CCC[C@H]1CCNc1nc(-c2cc(OC[C@H](O)CNC)ccc2Cl)nc(-c2c(C)noc2C)c1C [Example 137-3] |
| < 5 | CNC[C@@H](O)COc1ccc(Cl)c(-c2nc(-c3c(C)noc3C)c(C)c(C3CC3)n2)c1 [Example 205-3] |
| < 5 | CNC[C@H](O)COc1cccc(-c2nc(NC3CCN(C(=O)OC)CC3)c(C)c(-c3c(C)noc3C)n2)c1 [Example 169-1a] |
| < 5 | CNCC(O)COc1cccc(-c2nc(N[C@@H]3CCOC3)c(C)c(N3CCN(C4CC4)[C@H](C)C3)n2)c1 (stereo partly shown) [Example 466-1a] |
| < 5 | CNC[C@@H](O)COc1ccc(Cl)c(-c2nc(N[C@@H]3CCN(C(=O)OC)[C@@H](C)C3)c(C)c(-c3c(C)noc3C)n2)c1 [Example 101-3] |
| < 5 | CNCC(O)COc1cccc(-c2nc(-c3c(C)noc3C)c(C)c(N3CCN(C(=O)OCC(F)F)CC3)n2)c1 (stereo not shown) [Example 161-1a] |
| < 5 | CNC[C@@H](O)COc1ccc(F)c(-c2nc(-c3c(C)noc3C)c(C)c(N3Cc4nccnc4C3)n2)c1 [Example 226-3] |
| < 5 | CNC[C@@H](O)COc1ccc(Cl)c(-c2nc(-c3c(C)noc3C)c(C)c(N3CC4(CCN(C5CC5)CC4)C3)n2)c1 [Example 108-3] |
| < 5 | CNCC(O)COc1cccc(-c2nc(N[C@@H]3CCOC3)c(C)c(N3Cc4cccnc4C3)n2)c1 (stereo partly shown) [Example 394-1a] |
| < 5 | CNC[C@@H](O)COc1ccc(F)c(-c2nc(-c3c(C)noc3C)c(C)c(N3Cc4cccnc4C3)n2)c1 [Example 114-3] |
| < 5 | CNC[C@@H](O)COc1ccc(Cl)c(-c2nc(NC[C@H]3CCCN3C(=O)OC(C)C)c(C)c(-c3c(C)noc3C)n2)c1 [Example 160-3] |
| < 5 | CCOC(=O)N1CCC(Nc2nc(-c3cc(OC[C@@H](O)CNC)ccc3Cl)nc(-c3c(C)noc3C)c2C)CC1 [Example 105-3] |
| < 5 | CNC[C@@H](O)COc1ccc(Cl)c(-c2nc(NC[C@@H]3CCOC3)c(C)c(-c3c(C)noc3C)n2)c1 [Example 228-3] |

— patent publication US10633389B2, “CARM1 inhibitors and uses thereof” (Epizyme, Inc., priority 2013, dated 2020)
